Assay results reported in ChEMBL document CHEMBL4311939, “Design and evaluation of novel tetracyclic benzofurans as palm site allosteric inhibitors of HCV NS5B polymerase” (Bioorg Med Chem Lett, 2019).
≈ marks a conversion by molar mass, not a printed value.

How the values were obtained:
[1] = Cmax in rat at 100 mg/kg, po using spray dry sample; format: ADME, organism-based; design: dose 100 mg/kg, route oral; conditions: in vivo
[2] = AUC in rat at 10 mg/kg, po using spray dry sample; format: ADME, organism-based; conditions: in vivo
[3] = Cmax in rat at 650 mg/kg, po using spray dry sample; format: ADME, organism-based; design: dose 650 mg/kg, route oral; conditions: in vivo
[4] = Cmax in rat at 10 mg/kg, po using spray dry sample; format: ADME, organism-based; design: dose 10 mg/kg, route oral; conditions: in vivo
[5] = Apparent permeability in dog MDCK cells; format: ADME, cell-based, Canis lupus familiaris
[6] = AUC in rat at 100 mg/kg, po using spray dry sample; format: ADME, organism-based; conditions: in vivo
[7] = AUC in rat at 650 mg/kg, po using spray dry sample; format: ADME, organism-based; conditions: in vivo
[8] = AUC in dog at 2 mg/kg, po; format: ADME, organism-based, Canis lupus familiaris; conditions: in vivo
[9] = AUC in rat at 100 mg/kg, po using conventional sample; format: ADME, organism-based; conditions: in vivo
[10] = Clearance in monkey at 1 mg/kg, iv; format: ADME, organism-based, Macaca mulatta; conditions: rhesus monkey, in vivo
[11] = Cmax in rat at 5 mg/kg, po; format: ADME, organism-based; design: dose 5 mg/kg, route oral; conditions: in vivo
Cytochrome P450 3A4 = Cytochrome P450 3A4 (Homo sapiens, UniProt P08684); test: Inhibition of CYP3A4 (unknown origin); format: ADME
Chain of Cytochrome P450 3A4 (P08684 whole entry): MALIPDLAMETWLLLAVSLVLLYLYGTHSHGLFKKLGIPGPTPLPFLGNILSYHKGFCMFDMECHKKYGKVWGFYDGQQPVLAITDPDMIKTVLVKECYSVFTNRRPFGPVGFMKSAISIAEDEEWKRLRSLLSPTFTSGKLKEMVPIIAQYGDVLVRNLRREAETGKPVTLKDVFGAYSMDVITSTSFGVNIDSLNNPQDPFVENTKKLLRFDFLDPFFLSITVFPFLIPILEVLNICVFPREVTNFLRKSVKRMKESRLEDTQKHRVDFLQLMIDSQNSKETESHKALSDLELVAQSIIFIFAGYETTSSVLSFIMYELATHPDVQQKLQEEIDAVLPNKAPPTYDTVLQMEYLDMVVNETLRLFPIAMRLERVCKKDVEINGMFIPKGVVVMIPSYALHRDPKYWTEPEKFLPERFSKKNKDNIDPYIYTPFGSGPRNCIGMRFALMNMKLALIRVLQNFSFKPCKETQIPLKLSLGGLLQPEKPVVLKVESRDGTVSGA

[12] = biological target: Voltage-gated inwardly rectifying potassium channel KCNH2 (Homo sapiens, UniProt Q12809); test: Inhibition of human ERG by patch clamp assay
Chain of Voltage-gated inwardly rectifying potassium channel KCNH2 (Q12809 whole entry): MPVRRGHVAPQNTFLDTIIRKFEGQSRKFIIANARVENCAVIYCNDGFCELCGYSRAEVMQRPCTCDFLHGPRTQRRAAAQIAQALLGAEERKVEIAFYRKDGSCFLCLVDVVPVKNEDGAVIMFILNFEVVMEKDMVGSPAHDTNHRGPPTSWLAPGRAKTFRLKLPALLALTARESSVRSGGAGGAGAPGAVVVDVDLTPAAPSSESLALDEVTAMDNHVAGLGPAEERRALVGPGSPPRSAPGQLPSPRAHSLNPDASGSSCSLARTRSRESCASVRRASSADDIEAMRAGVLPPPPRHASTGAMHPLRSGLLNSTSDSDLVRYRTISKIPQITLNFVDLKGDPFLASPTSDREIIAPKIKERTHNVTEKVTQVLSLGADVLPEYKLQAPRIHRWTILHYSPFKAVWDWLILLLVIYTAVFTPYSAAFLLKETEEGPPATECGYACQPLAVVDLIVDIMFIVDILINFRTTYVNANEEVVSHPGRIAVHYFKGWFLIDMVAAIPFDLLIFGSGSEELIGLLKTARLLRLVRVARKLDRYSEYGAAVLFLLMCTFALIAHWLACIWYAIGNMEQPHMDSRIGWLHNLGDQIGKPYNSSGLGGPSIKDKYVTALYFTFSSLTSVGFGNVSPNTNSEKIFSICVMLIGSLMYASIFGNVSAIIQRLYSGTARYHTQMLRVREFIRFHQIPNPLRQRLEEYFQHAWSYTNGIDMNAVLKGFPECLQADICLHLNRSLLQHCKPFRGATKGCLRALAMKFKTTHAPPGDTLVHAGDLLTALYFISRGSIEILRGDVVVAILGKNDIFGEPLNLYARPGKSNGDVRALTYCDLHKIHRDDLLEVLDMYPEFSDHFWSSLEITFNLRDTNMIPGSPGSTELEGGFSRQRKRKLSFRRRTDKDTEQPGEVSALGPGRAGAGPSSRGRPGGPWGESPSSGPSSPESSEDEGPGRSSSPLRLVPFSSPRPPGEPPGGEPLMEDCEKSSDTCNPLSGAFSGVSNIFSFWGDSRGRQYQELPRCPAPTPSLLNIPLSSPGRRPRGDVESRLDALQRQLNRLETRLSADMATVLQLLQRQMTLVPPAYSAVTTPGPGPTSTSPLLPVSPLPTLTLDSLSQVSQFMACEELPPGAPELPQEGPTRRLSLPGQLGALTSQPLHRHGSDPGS

[13] = AUC in rat at 300 mg/kg, po using spray dry sample; format: ADME, organism-based; conditions: in vivo
[14] = biological target: Sodium channel protein type 5 subunit alpha (Homo sapiens, UniProt Q14524); test: Inhibition of Nav1.5 (unknown origin)
Chain of Sodium channel protein type 5 subunit alpha (Q14524 whole entry): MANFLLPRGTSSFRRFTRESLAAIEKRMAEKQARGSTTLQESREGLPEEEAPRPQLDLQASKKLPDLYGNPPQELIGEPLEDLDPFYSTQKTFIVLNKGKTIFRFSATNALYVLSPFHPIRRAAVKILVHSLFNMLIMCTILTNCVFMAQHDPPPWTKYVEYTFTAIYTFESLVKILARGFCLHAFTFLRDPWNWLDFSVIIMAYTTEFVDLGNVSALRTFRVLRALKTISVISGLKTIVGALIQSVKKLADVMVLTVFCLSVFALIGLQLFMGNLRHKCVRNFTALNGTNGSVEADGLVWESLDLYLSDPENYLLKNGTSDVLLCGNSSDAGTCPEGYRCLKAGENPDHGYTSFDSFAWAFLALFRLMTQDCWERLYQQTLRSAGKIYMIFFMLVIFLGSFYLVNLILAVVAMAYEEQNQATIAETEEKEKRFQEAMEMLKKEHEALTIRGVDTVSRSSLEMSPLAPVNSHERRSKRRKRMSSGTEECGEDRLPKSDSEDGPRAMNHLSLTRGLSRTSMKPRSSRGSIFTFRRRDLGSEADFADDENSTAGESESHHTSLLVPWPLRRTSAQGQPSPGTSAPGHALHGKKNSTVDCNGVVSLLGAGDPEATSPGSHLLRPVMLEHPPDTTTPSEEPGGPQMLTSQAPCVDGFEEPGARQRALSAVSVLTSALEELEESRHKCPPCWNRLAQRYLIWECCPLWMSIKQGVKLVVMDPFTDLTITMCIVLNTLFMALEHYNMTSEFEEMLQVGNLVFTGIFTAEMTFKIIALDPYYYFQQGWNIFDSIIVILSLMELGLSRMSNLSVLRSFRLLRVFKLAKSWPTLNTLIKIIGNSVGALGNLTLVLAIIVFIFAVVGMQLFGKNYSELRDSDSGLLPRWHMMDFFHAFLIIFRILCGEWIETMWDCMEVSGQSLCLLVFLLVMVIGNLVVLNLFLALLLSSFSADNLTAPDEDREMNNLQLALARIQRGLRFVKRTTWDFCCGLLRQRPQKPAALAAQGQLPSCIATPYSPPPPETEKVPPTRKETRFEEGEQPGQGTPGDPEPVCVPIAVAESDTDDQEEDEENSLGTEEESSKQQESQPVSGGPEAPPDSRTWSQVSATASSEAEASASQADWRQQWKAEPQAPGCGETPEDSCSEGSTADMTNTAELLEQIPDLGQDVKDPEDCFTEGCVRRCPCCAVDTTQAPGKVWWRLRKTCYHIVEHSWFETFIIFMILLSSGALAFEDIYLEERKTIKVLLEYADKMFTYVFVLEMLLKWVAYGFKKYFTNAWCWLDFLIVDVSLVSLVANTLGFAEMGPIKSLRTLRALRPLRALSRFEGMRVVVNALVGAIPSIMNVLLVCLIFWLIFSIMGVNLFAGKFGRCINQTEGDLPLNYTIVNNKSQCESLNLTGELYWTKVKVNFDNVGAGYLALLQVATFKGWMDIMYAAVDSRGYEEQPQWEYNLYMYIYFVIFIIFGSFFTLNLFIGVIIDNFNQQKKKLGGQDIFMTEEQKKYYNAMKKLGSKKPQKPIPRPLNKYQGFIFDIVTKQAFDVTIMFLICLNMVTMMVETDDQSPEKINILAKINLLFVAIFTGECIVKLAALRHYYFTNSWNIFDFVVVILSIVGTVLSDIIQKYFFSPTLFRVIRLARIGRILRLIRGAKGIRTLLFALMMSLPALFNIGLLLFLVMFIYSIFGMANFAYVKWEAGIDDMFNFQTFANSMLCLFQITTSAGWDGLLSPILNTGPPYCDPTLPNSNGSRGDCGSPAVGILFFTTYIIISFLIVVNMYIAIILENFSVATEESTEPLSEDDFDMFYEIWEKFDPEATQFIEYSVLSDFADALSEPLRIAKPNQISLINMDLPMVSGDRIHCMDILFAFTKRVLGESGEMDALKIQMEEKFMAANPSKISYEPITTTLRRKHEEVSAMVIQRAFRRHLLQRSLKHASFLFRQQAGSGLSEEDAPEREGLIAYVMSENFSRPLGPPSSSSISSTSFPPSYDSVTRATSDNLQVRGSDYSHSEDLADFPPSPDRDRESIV

[15] = Half life in rat at 1 mg/kg, iv; format: ADME, organism-based; conditions: in vivo
[16] = Oral bioavailability in monkey at 3 mg/kg; format: ADME, organism-based, Macaca mulatta; conditions: rhesus monkey, in vivo
[17] = AUC in rat at 5 mg/kg, po; format: ADME, organism-based; conditions: in vivo
[18] = Drug concentration in dog plasma at 2 mg/kg, po after 24 hrs; format: ADME, organism-based, Canis lupus familiaris
[19] = biological target: T1, Nuclear receptor subfamily 1 group I member 2 (Homo sapiens, UniProt O75469); test: Transactivation of PXR (unknown origin); format: ADME
T1 sequence (O75469 whole entry): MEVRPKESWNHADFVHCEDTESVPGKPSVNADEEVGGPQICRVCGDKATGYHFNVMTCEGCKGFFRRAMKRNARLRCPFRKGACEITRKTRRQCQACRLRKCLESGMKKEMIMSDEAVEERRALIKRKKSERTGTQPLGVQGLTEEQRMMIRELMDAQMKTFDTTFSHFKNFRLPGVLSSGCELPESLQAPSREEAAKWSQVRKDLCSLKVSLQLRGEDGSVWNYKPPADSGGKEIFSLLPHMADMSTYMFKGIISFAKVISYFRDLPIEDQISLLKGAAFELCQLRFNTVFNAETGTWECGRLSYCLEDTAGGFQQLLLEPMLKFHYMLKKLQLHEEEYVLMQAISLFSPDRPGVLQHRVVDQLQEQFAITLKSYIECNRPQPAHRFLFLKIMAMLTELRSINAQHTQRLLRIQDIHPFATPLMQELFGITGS

[20] = Half life in dog at 0.5 mg/kg, iv; format: ADME, organism-based, Canis lupus familiaris; conditions: in vivo
[21] = Drug concentration in monkey plasma at 3 mg/kg, po after 24 hrs; format: ADME, organism-based, Macaca mulatta; conditions: rhesus monkey
[22] = Clearance in dog at 0.5 mg/kg, iv; format: ADME, organism-based, Canis lupus familiaris; conditions: in vivo
[23] = Cmax in monkey at 3 mg/kg, po; format: ADME, organism-based, Macaca mulatta; design: dose 3 mg/kg, route oral; conditions: rhesus monkey, in vivo
[24] = Clearance in rat at 1 mg/kg, iv; format: ADME, organism-based; conditions: in vivo
[25] = Cmax in dog at 2 mg/kg, po; format: ADME, organism-based, Canis lupus familiaris; design: dose 2 mg/kg, route oral; conditions: in vivo
[26] = Drug concentration in rat plasma at 5 mg/kg, po after 24 hrs; format: ADME, organism-based
[27] = AUC in monkey at 3 mg/kg, po; format: ADME, organism-based, Macaca mulatta; conditions: rhesus monkey, in vivo
[28] = Half life in monkey at 1 mg/kg, iv; format: ADME, organism-based, Macaca mulatta; conditions: rhesus monkey, in vivo
[29] = Cmax in rat at 300 mg/kg, po using spray dry sample; format: ADME, organism-based; design: dose 300 mg/kg, route oral; conditions: in vivo
[30] = Solubility of the compound in FaSSIF using crystalline sample; format: physicochemical
[31] = Oral bioavailability in rat at 5 mg/kg; format: ADME, organism-based; conditions: in vivo
[32] = Oral bioavailability in dog at 2 mg/kg; format: ADME, organism-based, Canis lupus familiaris; conditions: in vivo
[33] = biological target: Voltage-dependent L-type calcium channel subunit alpha-1C (Homo sapiens, UniProt Q13936); test: Inhibition of Cav1.2 (unknown origin)
[34] = Drug metabolism in solvent assessed as oxidation by measuring cpd 1 formation under air exposure
[35] = Tmax in rat at 5 mg/kg, po; format: ADME, organism-based; conditions: in vivo

Structure (SMILES) | Papp [5] [nm/s] | AUC [8] [µM·h] | clearance [10] [L/h/kg] | Cmax [11] [µM] | IC50 (Cytochrome P450 3A4) [µM] | IC50 [12] [µM] | IC50 [14] [µM] | half-life [15] [h] | bioavailability [16] [%] | AUC [17] [µM·h] | concentration at 24 h [18] [µM] | EC50 [19] [µM] | half-life [20] [h] | concentration at 24 h [21] [µM] | clearance [22] [L/h/kg] | Cmax [23] [µM] | clearance [24] [L/h/kg] | Cmax [25] [µM] | concentration at 24 h [26] [µM] | bioavailability [31] [%] | also measured
CNC(=O)c1c(-c2ccc(F)cc2)oc2cc(N(C)S(C)(=O)=O)c(-c3ccc4c(n3)-c3cc5c(F)cccc5n3CO4)cc12 [MK-8876] | 79 |  |  |  |  |  |  |  |  |  |  |  |  |  |  |  |  |  |  |  | Cmax [1]: 6.7 µM; AUC [2]: 16 µM·h; Cmax [3]: 12 µM; Cmax [4]: 1.5 µM; AUC [6]: 83 µM·h; AUC [7]: 226 µM·h
CNC(=O)c1c(-c2ccc(F)cc2)oc2cc(N(C)S(C)(=O)=O)c(-c3ccc4ncn5c6cccc(F)c6cc5c4n3)cc12 | 102 | 9.4 | 0.282 | 0.58 | > 50 | > 30 | > 30 | 8.4 | 20 | 5.2 | 0.13 | > 30 | 17 | 0.01 | 0.192 | 0.66 | 0.51 | 0.84 | 0.11 | 36 | AUC [9]: 0.67 µM·h; Cmax [1]: 8.5 µM; AUC [2]: 32 µM·h; AUC [13]: 181 µM·h; Cmax [4]: 2.7 µM; AUC [6]: 136 µM·h; AUC [27]: 3.4 µM·h; half-life [28]: 6.1 h; Cmax [29]: 5.6 µM; solubility thermodynamic [30]: 1.02 µg/mL (≈ 1.67 µM); bioavailability [32]: 64%; IC50 [33]: 22 µM
CNC(=O)c1c(-c2ccc(F)cc2)oc2cc(N(C)S(C)(=O)=O)c(-c3ccc4c(n3)-c3cc5c(F)cccc5n3CN4)cc12 | 89 | 2.3 | 0.462 | 0.35 | > 50 | > 30 | > 30 | 3.8 | 9.3 | 1.4 | 0.011 | > 30 | 4 | 0.004 | 0.474 | 0.13 | 0.96 | 0.41 | 0.0022 | 16 | Drug metabolism [34]: Metabolite detected; AUC [27]: 1 µM·h; half-life [28]: 3.9 h; bioavailability [32]: 30%; IC50 [33]: > 30 µM
CNC(=O)c1c(-c2ccc(F)cc2)oc2cc(N(C)S(C)(=O)=O)c(-c3ccc4c(n3)-c3cc5c(F)cccc5n3CC4)cc12 | 142 | 9.2 | 0.66 | 0.95 | > 50 | > 30 | > 30 | 12 | 22 | 8.8 | 0.076 | > 30 | 13 | 0.0063 | 0.174 | 0.32 | 0.138 | 1.3 | 0.069 | 18 | Cmax [1]: 8.2 µM; AUC [2]: 37 µM·h; Cmax [3]: 11 µM; Tmax [35]: 4 h; Cmax [4]: 4.3 µM; AUC [6]: 100 µM·h; AUC [27]: 1.7 µM·h; half-life [28]: 5.9 h; solubility thermodynamic [30]: 4.7 µg/mL (≈ 7.67 µM); bioavailability [32]: 54%; IC50 [33]: 18 µM; AUC [7]: 181 µM·h
CNC(=O)c1c(-c2ccc(F)cc2)oc2cc(N(C)S(C)(=O)=O)c(-c3ccc4ccn5c6cccc(F)c6cc5c4n3)cc12 | < 19 | 6.3 | 0.336 | 0.45 | > 50 | > 30 | > 30 | 16 | 24 | 7.9 | 0.14 | > 30 | 22 | 0.031 | 0.156 | 0.37 | 0.252 | 1 | 0.114 | 26 | AUC [27]: 3.5 µM·h; half-life [28]: 6.6 h; solubility thermodynamic [30]: 2.9 µg/mL (≈ 4.75 µM); bioavailability [32]: 43%; IC50 [33]: 18 µM
CNC(=O)c1c(-c2ccc(F)cc2)oc2cc(N(C)S(C)(=O)=O)c(-c3ccc4c(n3)-c3cc5c(F)cccc5n3C4)cc12 |  |  |  | 0.12 |  |  |  | 9.6 |  | 1.1 |  |  |  |  |  |  | 0.312 |  | 0.01 | 4 | Tmax [35]: 3 h
CNC(=O)c1c(-c2ccc(F)cc2)oc2cc(N(C)S(C)(=O)=O)c(-c3cc4n(c(=O)c3)CCn3c-4cc4c(F)cccc43)cc12 |  |  |  | 0.19 |  |  |  | 4.3 |  | 0.078 |  |  |  |  |  |  | 1.02 |  |  | 1 | Tmax [35]: 1 h
